Experimental data as given in US12258360B2, “Compositions and methods for treatment of anticancer-drug resistant cancers” (THE GEORGE WASHINGTON UNIVERSITY, priority 2020, dated 2025).
Values joined by “and” are separate entries in the source; they are usually repeats but may differ in a detail not shown here. Equal entries are not always repeated.

Key:
And-1 [1] = target: T1, And-1 (Homo sapiens, UniProt O75717); assay: inhibition of And-1 in IGROV1 CR cells; format: cell-based; parameters: endogenous in cells; host or cells: IGROV1 CR; conditions: inhibition of And-1, IGROV1 CR cells
T1 sequence (O75717 1-1129): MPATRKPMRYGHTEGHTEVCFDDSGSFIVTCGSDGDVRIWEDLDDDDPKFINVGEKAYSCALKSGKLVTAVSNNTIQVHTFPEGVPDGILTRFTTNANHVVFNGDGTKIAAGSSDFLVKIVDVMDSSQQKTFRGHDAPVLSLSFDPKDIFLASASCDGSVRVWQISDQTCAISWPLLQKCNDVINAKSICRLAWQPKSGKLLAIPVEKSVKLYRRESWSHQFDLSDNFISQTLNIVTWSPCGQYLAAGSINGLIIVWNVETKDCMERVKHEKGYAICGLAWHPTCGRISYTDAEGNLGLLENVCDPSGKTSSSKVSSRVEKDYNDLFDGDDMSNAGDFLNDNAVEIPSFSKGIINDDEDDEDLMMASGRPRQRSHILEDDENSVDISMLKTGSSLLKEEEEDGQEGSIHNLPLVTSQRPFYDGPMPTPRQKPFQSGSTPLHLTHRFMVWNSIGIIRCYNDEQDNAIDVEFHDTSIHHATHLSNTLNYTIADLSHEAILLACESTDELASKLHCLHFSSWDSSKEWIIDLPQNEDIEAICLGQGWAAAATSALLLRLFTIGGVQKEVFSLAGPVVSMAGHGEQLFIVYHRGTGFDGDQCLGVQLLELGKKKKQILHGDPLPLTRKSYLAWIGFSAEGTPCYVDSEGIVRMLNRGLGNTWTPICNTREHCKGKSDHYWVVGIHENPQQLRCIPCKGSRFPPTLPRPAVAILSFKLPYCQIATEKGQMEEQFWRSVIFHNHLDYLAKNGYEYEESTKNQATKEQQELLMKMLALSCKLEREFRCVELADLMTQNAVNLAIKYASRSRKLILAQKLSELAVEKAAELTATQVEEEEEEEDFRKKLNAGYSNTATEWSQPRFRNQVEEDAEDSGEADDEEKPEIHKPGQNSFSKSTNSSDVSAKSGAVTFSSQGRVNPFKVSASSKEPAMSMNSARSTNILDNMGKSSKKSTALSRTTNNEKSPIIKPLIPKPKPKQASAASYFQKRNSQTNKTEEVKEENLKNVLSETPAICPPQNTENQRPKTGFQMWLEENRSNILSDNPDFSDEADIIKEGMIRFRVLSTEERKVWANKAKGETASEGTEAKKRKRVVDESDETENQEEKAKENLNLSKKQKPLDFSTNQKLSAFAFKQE

SREBP target gene SCD-1 = assay: RT-PCR detection of SCD-1 gene expression in AN3CA cells; format: cell-based, human; conditions: 10 μM; for Relative mRNA expression of SCD-1: AN3CA cells, 48 h, DMSO = 1
Protocol: • 1. Experimental reagent • 2. The experimental steps are as follows: • 2.1 AN3CA cell recovery and culture (10% serum 1% double antibody in MEM medium); • 2.2 passages (passage at a ratio of 1:2); • 2.3 Place 6 well plates when the cell status is good, 5×10^5Well, culture overnight; • 2.4 adding medicine: diluting the final concentration of the drug with a culture medium to 10 μM, 2 mL/well; • 2.5 adding medicine for 48 h, and then extracting RNA; • 2.5.1 removing the culture medium, adding 0.5 mL/hole Trizol to lyse the cells, repeatedly blowing and beating the cells by a pipette after 5 min, completely lysing the cells, transferring the cells into a 1.5 mL EP tube without RNase, and standing the tube for 5 min; • 2.5.2 adding 200 µl chloroform, shaking rapidly, mixing, standing for 10 min 12000 rpm/15 min; • 2.5.3 carefully taking out the supernatant, transferring the supernatant into an EP tube, adding isopropanol with the same volume, reversing, uniformly mixing, standing for 10 min, and centrifuging at 12000 rpm/10 min; • 2.5.4 removing the supernatant, adding 1 mL of 75% ethanol for washing, centrifuging at 8000 rpm/5 min once, carefully removing the supernatant, standing at room temperature for 10 min to volatilize the ethanol, and dissolving the precipitate with 40 μL of DEPC treated water when the precipitate becomes transparent; • 2.5.5 RNA concentration was measured and DEPC-treated water was diluted to 100 ng/μL • 2.6 reverse transcription: Kit Takara (PrimeScript RT reagent Kit (Perfect Real Time)

And-1 [2] = target: T1, And-1; assay: inhibition of And-1 in OV90 CR cells; format: cell-based; parameters: endogenous in cells; conditions: inhibition of And-1, OV90 CR cells
And-1 [3] = target: T1, And-1; assay: Western blot detection of And-1 protein expression in A549 cells; format: cell-based; parameters: endogenous in cells; host or cells: A549; conditions: A549 cell line, 5 μM, 24 hours
Protocol: Select the A549 cells in good growth condition and inoculate them in a 60 mm petri dish at a density of 500,000. After culturing in a constant temperature incubator at 37° C. and 5% CO2 for 24 hours, add different compounds of the same concentration (5 μM) and continue culturing for 24 hours before collecting Cells were subjected to Western blotting experiments to compare with untreated cells to detect the inhibitory effect of each compound on the expression of And-1 protein.

AN3CA cells [4] = assay: cell clonogenic assay in AN3CA cells; format: cell-based, human; conditions: 5 μM
Protocol: • 1. The experimental steps are as follows: • 1.1 AN3CA cell recovery and culture (MEM medium, 10% serum, 1% double antibody); • 1.2 Passages (1:2 ratio passage); • 1.3 When the cell state is good, laying 6-hole plates, 500/hole, and culturing overnight; • 1.4 Adding medicine: […], 2 mL/well; • 1.5 Adding medicine in a liquid changing mode every two days; • 1.6 Frequent observation. The culture was terminated when macroscopic colonies appeared in the culture dish. The supernatant was discarded, carefully rinsed 2 times with PBS and air dried. Cells were fixed with 5 mL of 4% paraformaldehyde for 30 minutes or with methanol for 10 minutes. And (3) removing the stationary liquid after air drying, adding a proper amount of GIMSA, dyeing for 10-30 minutes by using the dyeing liquid, then slowly washing away the dyeing liquid by using running water, and air drying. • 1.7 Plates were inverted and overlaid with a piece of transparent film with grid and clones were counted either directly with the naked eye or with a microscope (low power) for clones larger than 10 cells. And finally calculating the clone formation rate. • 1.8 Percent colony formation rate (number of clones/number of inoculated cells)×100%

AN3CA cells [5] = assay: cell proliferation assay (MTS) in AN3CA cells; format: cell-based, human; conditions: 10 μM, 48 h
Protocol: • 1. The experimental steps are as follows: • 1.1 AN3CA cell recovery and culture (MEM medium, 10% serum, 1% double antibody); • 1.2 Passages (passage at a ratio of 1:2); • 1.3 Place 96-well plate when the cell status is good, 1×10^4 Well, culture overnight; • culture medium with 10% defatted serum • 1.4 Adding medicine: diluting the final concentration of the drug with a culture medium to 10 μM, and treating for 48 h at 100 μL/well; • culture medium with 10% defatted serum • 1.5 Addition of 2 μL MTS/well, care taken to prevent bubble formation, 490 nm data after 1-4 h

Row | SMILES | IC50 (And-1 [1]) | Relative mRNA expression of SCD-1 (SREBP target gene SCD-1) | inhibitory effect on Srebp (SREBP target gene SCD-1; human endometrial cancer AN3CA cells) | IC50 (And-1 [2]) | expression of And-1 protein (Western blot) (And-1 [3]) | inhibition of clonogenic rate (AN3CA cells [4]) | inhibition of AN3CA cell proliferation (in words) (AN3CA cells [5])
1 | OB1OCc2cc(/C=C/c3ccc(Cl)c(Cl)c3)ccc21 [III, (E)-5-(3,4-dichlorostyryl)benzo[c][1,2]oxaborol-1(3H)-ol] | 7.8 µM and 7.83 µM | 0.64 | high inhibitory effect | 13.3 µM | significantly inhibit | – | –
2 | OB1OCc2cc(/C=C/c3cc(Cl)cc(Cl)c3)ccc21 [XIV, (E)-5-(3,5-dichlorostyryl)benzo[c][1,2]oxaborol-1(3H)-ol] | 25.7 µM | 0.46 | – | 29.9 µM | – | comparable to that of 10 μM BF 175 | different degrees of inhibition
